Results from patent US20210369640A1, “COMPOSITION CONTAINING SESQUITERPENE DERIVATIVE AS ACTIVE INGREDIENT FOR PREVENTION OR TREATMENT OF MUSCLE DISEASES” (INDUSTRY-ACADEMIC COOPERATION FOUNDATION, YONSEI UNIVERSITY, priority 2017, published 2021).

How the values were obtained:
[1] = tested on: MaFbx/atrogin1; experiment: RT-PCR of MaFbx/atrogin1 gene expression in dexamethasone-treated mouse myoblasts; format: cell-based; settings: 100 μM, co-treated with dexamethasone; FIG. 3B
Experimental: (§1) A mouse myoblast cell line (C2C12 cells) was purchased from ATCC (Manassas, Va., USA), and the purchased cells were incubated in a 5% CO2 incubator at 37° C. using 10% fetal bovine serum media (Gibco-BRL). When the confluency of the incubated cells became 80%, the myoblasts were allowed to differentiate into myotubes using 2% horse serum media (Gibco-BRL).
(§2) The mouse myoblasts incubated in Preparation Example 1 were co-treated with 50 dexamethasone (dexa; Sigma) and 100 μM of sesquiterpene derivatives (experimental materials) for two days from day 4 of differentiation of the mouse myoblasts.
(§3) An experiment was conducted in the same manner as in Example 1, except for treatment with 50 μM of dexamethasone (dexa; Sigma) instead of the sesquiterpene derivatives (experimental materials).
(§4) 334 μl of a TRIzol solution per 1×10^7 mouse myoblasts of Example 1 was added and replaced, followed by centrifugation at 12,000×g and 4° C. for 10 minutes. The supernatant was transferred to a new tube and then 67 μl of chloroform was added thereto, followed by vortexing. […] The concentration of the extracted RNA samples was measured at wavelengths of 260 nm and 280 nm using a UV/VIS spectrometer (Beckman Coulter, DU730), and was subjected to agarose gel electrophoresis to confirm the integrity of RNA samples. […]

[2] = tested on: MuRF1; experiment: RT-PCR of MuRF1 gene expression in dexamethasone-treated mouse myoblasts; format: cell-based; settings: 100 μM, co-treated with dexamethasone; FIG. 3B
Experimental: as §1, §2, §3, §4

[3] = tested on: p-p70S6K1 protein; experiment: Western blotting of p-p70S6K1 in dexamethasone-treated mouse myoblasts; format: cell-based; settings: 100 μM, co-treated with dexamethasone; FIG. 3A
Experimental: (§10) The mouse myoblasts incubated in Preparation Example 1 were co-treated with 50 dexamethasone (dexa; Sigma) and 100 μM of sesquiterpene derivatives (experimental materials) for two days from day 4 of differentiation of the mouse myoblasts. An experiment was conducted in the same manner as in Example 1, except for treatment with 50 μM of dexamethasone (dexa; Sigma) instead of the sesquiterpene derivatives (experimental materials). To perform western blotting on cells, a lysis buffer containing 500 μL of 100 mM Tris-HCl, pH 7.4, 5 mM EDTA, 50 mM sodium pyrophosphate, 50 mM NaF, 100 mM orthovanadate, 1% Triton X-100, 1 mM phenylmethanesulfonyl fluoride, 2 μg/mL of aprotinin, 1 μg/mL of pepstatin A, and 1 μg/mL of leupeptin was added to each well from which media were removed, the cells were harvested, and then centrifuged at 1,300×g and 4° C. for 20 minutes, and then the middle layer was taken, and the concentrations of proteins were quantified by the Bradford method (Bio-Rad). 40 μg of the quantified proteins were electrophoresed by SDS-polyacrylamide gel, and then the separated proteins were transferred to nitrocellulose membranes (Amersham, Buckinghamshire, UK). […] Bands visualized on the X-ray film were scanned and quantified using Quantity One analysis software (Bio-Rad).

[4] = tested on: p-4E-BP1 protein; experiment: Western blotting of p-4E-BP1 in dexamethasone-treated mouse myoblasts; format: cell-based; settings: 100 μM, co-treated with dexamethasone; FIG. 3A
Experimental: as §10

[5] = tested on: mouse gastrocnemius; experiment: H&E staining of muscle tissue, fiber diameter; format: in vivo; settings: 200 mpk orally once a day, vs vehicle
Source text: (§5) 32 5-week-old male C57BL/6N mice (Orient, Korea) were adapted to a laboratory environment for one week with a commercial normal diet (rodent chow), and then randomly divided into four groups (chow vehicle group, chow α-cedrene group, HFD vehicle group, and HFD α-cedrene group) according to a randomized block design and bred for a total of 10 weeks.
(§6) While mice bred in Preparation Example 2 were fed a normal diet for 10 weeks, 200 mpk α-cedrene was orally administered to the mice once a day.
(§7) A procedure was carried out in the same manner as in Example 2, except that the mice were fed a high-fat experimental diet (HFD: 40% high fat energy, 17 g lard+3% corn oil/100 g diet).
(§8) A procedure was carried out in the same manner as in Example 2, except that a vehicle was orally administered instead of 200 mpk α-cedrene, while a commercial normal diet (rodent chow) was ingested.
(§9) A procedure was carried out in the same manner as in Comparative Example 2, except that a high-fat diet (HFD: 40% high fat energy) was ingested.
Muscle tissues of mice were extracted, fixed in 10% formalin, and then stained with hematoxylin and eosin (H&E) after requesting Korea CFC (Gyeonggi-do, Korea) to do so, and observed using an optical microscope (IX71, Olympus, JPN) and photographed using a digital camera (DP71, Olympus, JPN).

[6] = tested on: C57BL/6N mice; experiment: Four limb hanging test; format: in vivo, mouse; settings: 200 mpk orally once a day; for hanging time: FIG. 5A; for hanging time multiplied by body weight: FIG. 5B
Source text: as §5, §6, §7, §8, §9
To measure the limb muscle strength of mice, the time that the mice of Examples 2 and 3 and Comparative Examples 2 and 3 hung upside down using their four feet was measured at week 12 of breeding. The time (seconds) that the mice hung upside down in a cage equipped with a wire mesh cover (diameter <0.5 cm) (20×30×50 cm, Jeung-Do Bio & Plant Co., Ltd, Korea) was measured a total of three times, and a rest period of 30 minutes or longer was given between measurements. Experimental results were obtained by multiplying hanging time (sec) by body weight (kg).

[7] = tested on: C57BL/6N mice; experiment: Grip strength test; format: in vivo, mouse; settings: 200 mpk orally once a day, week 12 of breeding
Source text: as §5, §6
A procedure was carried out in the same manner as in Example 2, except that the mice were fed a high-fat experimental diet (HFD: 40% high fat energy, 17 g lard+3% corn oil/100 g diet). […]
The grip strength of the mice of Examples 2 and 3 and Comparative Examples 2 and 3 was measured at week 12 of breeding using a grip strength meter for mice (DJ2-248, Daejong Instrument Industry Co., Ltd., Korea). In particular, a force (N) for mice to hold onto a wire mesh was measured while mounting the four feet of mice on a wire mesh to which a gauge was attached, and pulling the tails of the mice backward. The measurement was successively performed five times, and the maximum value was determined as grip strength. To normalize the experimental results, grip strength (N) divided by body weight […] was calculated.

[8] = tested on: mouse myoblast cell line (C2C12 cells); experiment: Myotube thickness in dexamethasone-treated mouse myoblasts (Giemsa-Wright staining, ImageJ); format: cell-based; settings: 100 μM, vs dexamethasone alone; for increase in thickness of myotubes reduced by dexamethasone: co-treated with 50 μM dexamethasone for two days from day 4 of differentiation, quantified using ImageJ
Experimental: A mouse myoblast cell line (C2C12 cells) was purchased from ATCC (Manassas, Va., USA), and the purchased cells were incubated in a 5% CO2 incubator at 37° C. using 10% fetal bovine serum media (Gibco-BRL). When the confluency of the incubated cells became 80%, the myoblasts were allowed to differentiate into myotubes using 2% horse serum media (Gibco-BRL). The mouse myoblasts incubated in Preparation Example 1 were co-treated with 50 dexamethasone (dexa; Sigma) and 100 μM of sesquiterpene derivatives (experimental materials) for two days from day 4 of differentiation of the mouse myoblasts. An experiment was conducted in the same manner as in Example 1, except for treatment with 50 μM of dexamethasone (dexa; Sigma) instead of the sesquiterpene derivatives (experimental materials). […] When the fixing was completed, the myotubes were naturally dried at room temperature for 10 minutes, and then a Giemsa-Wright staining solution (Asan Pharmaceutical, Seoul), which specifically stains myotubes, was dropped onto the myotubes and left for 30 minutes to stain the myotubes. […] Six sections were randomly selected from each well and micrographed, and the thickness of at least […] myotubes from each well was analyzed (three repetitions/group).

[9] = high-fat diet, vs HFD vehicle group
[10] = normal diet, vs chow vehicle group

CC1=CC[C@@]23C[C@@H]1C(C)(C)C2CC[C@H]3C (stereo partly drawn) [cedrene, α-cedrene]
expression of MaFbx/atrogin1 [1]: significantly reduced
expression of MuRF1 [2]: significantly reduced
amount of p-p70S6K protein reduced by dexamethasone [3]: significantly increased
amount of p-4E-BP1 protein reduced by dexamethasone [4]: significantly increased
increase in fiber diameter of the mouse gastrocnemius ([5]; CHOW group): 21%
increase in fiber diameter of the mouse gastrocnemius ([5]; HFD group): 27%
hanging time [6, 9]: significantly increased
hanging time multiplied by body weight [6, 9]: significantly increased
hanging time [6, 10]: significantly increased
hanging time multiplied by body weight [6, 10]: significantly increased
increase in grip strength [7, 9]: 31%
increase in grip strength [7, 10]: 26%
increase in thickness of myotubes reduced by dexamethasone [8]: 58%
thickness of myotubes reduced by dexamethasone (visually confirmed, FIG. 1A) ([8]; co-treated with dexamethasone): increased

C[C@@H]1CC[C@H]2C(C)(C)[C@H]3C[C@@]12CC1OC13C (some centres unmarked) [cedrene epoxide]
increase in thickness of myotubes reduced by dexamethasone [8]: 38%

CC(=O)C1=C(C)[C@@H]2C[C@@]3(C1)[C@H](C)CC[C@H]3C2(C)C [methyl cedryl ketone]
increase in thickness of myotubes reduced by dexamethasone [8]: 32%

CC1=CCC23CC1C(C)(CO)C2CCC3C (centres unmarked) [cedrenol]
increase in thickness of myotubes reduced by dexamethasone [8]: 43%

C[C@@H]1CC[C@H]2C(C)(C)[C@H]3C[C@@]12CC[C@@]3(C)O [cedrol]
increase in thickness of myotubes reduced by dexamethasone [8]: 40%

CC(=O)O[C@]1(C)CC[C@@]23C[C@@H]1C(C)(C)[C@@H]2CC[C@H]3C [cedryl acetate]
increase in thickness of myotubes reduced by dexamethasone [8]: 51%

C=C1CC[C@@]23C[C@@H]1C(C)(C)C2CC[C@H]3C (stereo partly drawn) [β-cedrene]
increase in thickness of myotubes reduced by dexamethasone [8]: 36%
